{
  "source": "patent US11213539B2",
  "about": "“Use of ivermectin and brimonidine in the treatment and/or prevention of moderate to severe rosacea” (GALDERMA HOLDING SA, priority 2015, dated 2022)",
  "origin": "cited, not measured here",
  "test_system": "patients treated with brimonidine 0.33% gel",
  "settings": "brimonidine used alone; in a number of patients, in particular worsening of erythema (rebound)",
  "data": [
    {"molecule": "Brc1c(NC2=NCCN2)ccc2nccnc12", "note": "[brimonidine]", "values": [
      {"measurement": "related adverse effects", "result": "excessive"}
    ]}
  ]
}
